According to US8367708B2, “Phenyl-isoxazol-3-ol derivative” (MSD K.K., priority 2006, dated 2013):

Biological target: T1, human GPR120 (Homo sapiens, UniProt Q5NUL3)
T1 construct: expressed in transfected cells
T1 sequence (Q5NUL3 1-361): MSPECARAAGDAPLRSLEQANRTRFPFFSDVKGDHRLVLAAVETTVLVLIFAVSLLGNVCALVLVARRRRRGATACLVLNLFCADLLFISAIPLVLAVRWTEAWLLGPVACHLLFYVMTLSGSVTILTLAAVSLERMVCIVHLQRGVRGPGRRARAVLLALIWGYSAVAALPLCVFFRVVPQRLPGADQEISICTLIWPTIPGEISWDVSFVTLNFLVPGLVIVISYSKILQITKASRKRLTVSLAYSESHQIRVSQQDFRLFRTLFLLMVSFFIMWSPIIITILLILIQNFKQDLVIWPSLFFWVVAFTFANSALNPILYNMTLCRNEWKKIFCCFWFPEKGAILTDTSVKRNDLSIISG
Experiment: Measurement of intracellular calcium concentration (FLIPR), GPR120 agonist action
Assay type: cell-based
Settings: human GPR120 expression CHO cells, Fluo-4 AM, read-out: IC50 (GPR120 agonist action)

| SMILES | EC50 |
| --- | --- |
| Oc1cc(-c2ccc(OCc3cccc(Oc4ccccc4)n3)cc2)on1 [Example 3, 5-(4-((6-phenoxypyridin-2-yl)methoxy)phenyl)isoxazol-3-ol] | 180 nM |
| Oc1cc(-c2ccc(OCc3ccccc3Oc3ccccc3)nc2)on1 [Example 9, 5-(6-((2-phenoxybenzyl)oxy)pyridin-3-yl)isoxazol-3-ol] | 180 nM |
| CC(C)Sc1ncccc1COc1ccc(-c2cc(O)no2)cc1 [Example 15, 5-(4-((2-(isopropylthio)pyridin-3-yl)methoxy)phenyl)isoxazol-3-ol] | 70 nM |
| Oc1cc(-c2cc(F)c(OCc3ccccc3Oc3ccccc3)c(F)c2)on1 [Example 26, 5-(3,5-difluoro-4-((2-phenoxybenzyl)oxy)phenyl)isoxazol-3-ol] | 300 nM |
| Cc1oc(-c2ccccc2)nc1CCOc1ccc(-c2cc(O)no2)cc1 [Example 33, 5-(4-(2-(5-methyl-2-phenyl-1,3-oxazol-4-yl)ethoxy)phenyl)isoxazol-3-ol] | 620 nM |
| CCOc1cccc(OCCc2ccc(-c3cc(O)no3)cc2)c1 [Example 36, 5-(4-(2-(3-ethoxyphenoxy)ethyl)phenyl)isoxazol-3-ol] | 100 nM |
| Oc1cc(-c2ccc(OCCc3cccc(Oc4ccccc4)c3)cc2)on1 [Example 38] | 250 nM |
| CC(C)Nc1cccc(CCOc2ccc(-c3cc(O)no3)cc2)c1 [Example 41] | 150 nM |
| COCc1cccc(CCOc2ccc(-c3cc(O)no3)cc2)c1 [Example 43, 5-(4-(2-(3-(methoxymethyl)phenyl)ethoxy)phenyl)isoxazol-3-ol] | 280 nM |
| Oc1cc(-c2ccc(COc3cccc(Oc4ccccc4)c3)cc2)on1 [Example 45, 5-(4-((3-phenoxyphenoxy)methyl)phenyl)isoxazol-3-ol] | 170 nM |
